# Measurements taken from patent publication US7629468B2 (Janssen Pharmaceutica NV, priority 2003, dated 2009).
# pIC50: −log10 of the molar value.
# How the values were obtained:
# [1] = tested on: rats with a Bennett ligation; assay: Cold allodynia test in rats with a Bennett ligation (cold plate testing); format: in vivo, rat; conditions: male SD rats, IP, dose of 2.5 mg/kg bodyweight, retested after 60 minutes, cold plate 0.0 °C
# Experimental: Cold Allodynia Test in Rats with a Bennett Ligation
# Male SD rats, weighing 240-280 g at the time of surgery were used.
# For surgery, the animals were anaesthetised with Thalamonal (1 ml; subcutane) and sodium pentobarbital (40 mg/kg; intraperitoneal (IP)). The common sciatic nerve of the left hindpaw was exposed at the level of the middle of the thigh by blunt dissection through the biceps femoris. Proximal to the sciatic's trifurcation, about 7 mm of nerve was freed and four loose ligatures with 4.0 chromic gut were placed around the sciatic nerve. Great care was taken to tie the ligatures such that the diameter of the nerve was barely constricted. After surgery, the animals received 1.25 mg/kg naloxone IP.
# Cold plate testing was performed on a metal plate of 30×30 cm with transparent acrylic walls around it. The cold plate was cooled to 0.0 (±0.5)° C. using a Julabo F25 cooler. For testing, the animal was placed on the cold plate and the duration of lifting of both the left and the right hindpaw was measured during 5 minutes. The difference in lifting time between the ligated and non-ligated paw was calculated.
# At least one week after the operation, animals were placed on the cold plate test and a pre-drug measurement was taken. […] The results obtained during the post drug test were expressed as a percentage of those of the predrug test. […]
# [2] = target: T1, cloned rat mGluR1 receptor (Rattus norvegicus, UniProt P23385); assay: Signal transduction at the cloned rat mGluR1 receptor in CHO cells (glutamate-induced intracellular Ca2+ rise, FLIPR); format: cell-based
# T1 construct: expressed in transfected cells; host or cells: CHO cells
# T1 sequence (P23385 19-1199): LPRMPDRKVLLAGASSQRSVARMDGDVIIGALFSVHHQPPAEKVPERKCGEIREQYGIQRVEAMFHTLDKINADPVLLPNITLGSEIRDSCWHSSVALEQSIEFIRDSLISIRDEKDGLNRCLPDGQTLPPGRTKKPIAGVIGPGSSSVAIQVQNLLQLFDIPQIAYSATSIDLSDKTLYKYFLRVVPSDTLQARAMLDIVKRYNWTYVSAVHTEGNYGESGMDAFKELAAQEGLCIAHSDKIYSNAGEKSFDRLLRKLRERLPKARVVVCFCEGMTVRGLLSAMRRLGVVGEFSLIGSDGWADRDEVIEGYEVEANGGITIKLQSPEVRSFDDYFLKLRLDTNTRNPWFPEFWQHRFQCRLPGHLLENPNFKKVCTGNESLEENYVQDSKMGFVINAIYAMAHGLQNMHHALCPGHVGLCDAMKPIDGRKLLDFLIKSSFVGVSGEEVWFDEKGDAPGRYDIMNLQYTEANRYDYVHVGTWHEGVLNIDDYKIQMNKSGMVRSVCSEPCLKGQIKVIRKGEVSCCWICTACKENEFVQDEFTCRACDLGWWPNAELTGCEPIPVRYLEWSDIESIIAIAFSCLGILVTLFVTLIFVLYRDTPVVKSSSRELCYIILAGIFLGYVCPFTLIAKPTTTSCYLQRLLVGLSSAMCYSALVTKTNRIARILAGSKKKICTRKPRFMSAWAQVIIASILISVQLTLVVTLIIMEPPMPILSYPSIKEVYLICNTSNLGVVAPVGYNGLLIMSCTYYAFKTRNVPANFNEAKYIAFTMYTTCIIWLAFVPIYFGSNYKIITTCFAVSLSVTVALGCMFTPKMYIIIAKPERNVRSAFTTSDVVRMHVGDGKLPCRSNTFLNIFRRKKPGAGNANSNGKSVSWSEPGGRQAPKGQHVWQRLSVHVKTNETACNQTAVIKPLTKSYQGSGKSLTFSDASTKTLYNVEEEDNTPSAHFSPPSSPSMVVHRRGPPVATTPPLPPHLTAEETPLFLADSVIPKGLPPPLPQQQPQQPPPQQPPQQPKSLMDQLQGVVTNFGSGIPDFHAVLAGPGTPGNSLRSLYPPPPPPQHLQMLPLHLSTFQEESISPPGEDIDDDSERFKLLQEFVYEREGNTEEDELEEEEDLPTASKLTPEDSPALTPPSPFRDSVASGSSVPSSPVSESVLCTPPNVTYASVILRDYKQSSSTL
# Experimental: Pharmacological Example Signal Transduction at the Cloned Rat mGluR1 Receptor in CHO Cells
# CHO cells expressing the mGluR1 receptor were plated in precoated black 96-well plates. […] The cells were loaded with Fluo-3 AM, plates were incubated for 1 hour at room temperature in the dark, cells were washed and the present compounds were added onto the cells for 20 minutes. […] Relative fluorescence units were recorded and average data graphs of quadruple wells were obtained.
SMILES,melting point [°C],pIC50 [2],other results
CCc1cc2cc(C(=O)C3CCC(OC)CC3)ccc2nc1C#N (centres unmarked) [Compound 22],138,,
CCc1cc2cc(C(=O)C3CCC(OC)CC3)ccc2nc1C (centres unmarked) [Compound 27],,,"all or none criterion on difference in lifting time between ligated and non-ligated paw, post-drug as percentage of pre-drug [1]: antagonism"
CCc1cc2cc(C(=O)Cc3ccsc3)ccc2nc1C [Compound 299],,7.63,
CO[C@H]1CC[C@@H](C(=O)c2ccc3nc4c(cc3c2)CCCCC4)CC1 [Compound 426],,7.11,

# Now from value to molecule, other results behind:
melting point [°C],pIC50 [2],SMILES,other results
110,,CCc1cc2cc(C(=O)C3CCC(OC)CC3)ccc2nc1I (centres unmarked) [Compound 21],
,7.57,O=C(Cc1ccsc1)c1ccc2nc3c(cc2c1)CCCS3 [Compound 464],
113,,CCc1cc2cc(C(=O)C3CCC(OC)CC3)ccc2nc1C#CCO (centres unmarked) [Compound 18],
,7.05,CCc1cc2cc(C(=O)[C@H]3CC[C@@H](OC)CC3)ccc2nc1COC(C)=O [Compound 348],
